The source of these data is US20250388543A1, “HETEROARYL COMPOUNDS FOR THE TREATMENT OF PAIN” (VERTEX PHARMACEUTICALS INCORPORATED, priority 2022, published 2025).

pIC50: −log10 of the molar value.

Chain of human NaV 1.8 (Q9Y5Y9 126-1722 limits assumed): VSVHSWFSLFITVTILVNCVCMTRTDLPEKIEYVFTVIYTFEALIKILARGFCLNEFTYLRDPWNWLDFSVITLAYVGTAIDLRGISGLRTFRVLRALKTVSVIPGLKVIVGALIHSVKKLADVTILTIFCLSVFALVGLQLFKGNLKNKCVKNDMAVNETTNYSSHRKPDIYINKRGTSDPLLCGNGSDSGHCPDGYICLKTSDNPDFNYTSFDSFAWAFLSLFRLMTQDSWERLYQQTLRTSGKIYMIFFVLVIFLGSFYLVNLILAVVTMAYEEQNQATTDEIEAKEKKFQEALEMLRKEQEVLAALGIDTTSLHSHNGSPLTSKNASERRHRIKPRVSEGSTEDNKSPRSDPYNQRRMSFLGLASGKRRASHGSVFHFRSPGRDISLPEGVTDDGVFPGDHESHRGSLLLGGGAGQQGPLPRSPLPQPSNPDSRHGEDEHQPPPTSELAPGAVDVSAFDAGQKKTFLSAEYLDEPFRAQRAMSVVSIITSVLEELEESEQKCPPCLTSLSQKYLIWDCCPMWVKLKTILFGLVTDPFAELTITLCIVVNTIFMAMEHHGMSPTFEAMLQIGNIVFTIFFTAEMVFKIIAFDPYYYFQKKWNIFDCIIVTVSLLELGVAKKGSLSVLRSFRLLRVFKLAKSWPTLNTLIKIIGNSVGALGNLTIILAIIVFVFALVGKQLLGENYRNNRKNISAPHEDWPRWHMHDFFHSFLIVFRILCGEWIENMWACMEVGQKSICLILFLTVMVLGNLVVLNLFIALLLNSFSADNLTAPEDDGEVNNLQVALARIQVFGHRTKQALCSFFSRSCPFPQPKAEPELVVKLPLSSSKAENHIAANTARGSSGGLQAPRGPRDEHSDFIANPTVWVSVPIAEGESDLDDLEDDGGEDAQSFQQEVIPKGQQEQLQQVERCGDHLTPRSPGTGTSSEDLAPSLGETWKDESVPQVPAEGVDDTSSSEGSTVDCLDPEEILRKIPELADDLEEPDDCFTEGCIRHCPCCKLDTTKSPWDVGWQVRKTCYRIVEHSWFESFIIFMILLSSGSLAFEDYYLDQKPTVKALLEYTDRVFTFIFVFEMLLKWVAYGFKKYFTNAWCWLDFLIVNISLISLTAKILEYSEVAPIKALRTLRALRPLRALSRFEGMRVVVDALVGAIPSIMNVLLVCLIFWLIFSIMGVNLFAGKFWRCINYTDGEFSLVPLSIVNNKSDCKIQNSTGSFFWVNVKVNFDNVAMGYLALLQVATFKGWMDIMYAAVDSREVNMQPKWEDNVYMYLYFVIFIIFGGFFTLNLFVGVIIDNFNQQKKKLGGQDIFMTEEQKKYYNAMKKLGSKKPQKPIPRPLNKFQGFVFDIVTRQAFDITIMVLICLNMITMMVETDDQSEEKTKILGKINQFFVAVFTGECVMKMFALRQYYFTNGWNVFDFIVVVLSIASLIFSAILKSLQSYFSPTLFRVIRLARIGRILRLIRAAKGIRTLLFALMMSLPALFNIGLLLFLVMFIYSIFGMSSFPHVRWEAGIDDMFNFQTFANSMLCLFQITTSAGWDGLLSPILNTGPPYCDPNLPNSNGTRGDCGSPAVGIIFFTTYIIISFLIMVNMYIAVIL

This test addresses human NaV 1.8 (Homo sapiens, UniProt Q9Y5Y9). The test is described as follows: E-VIPR Assay Detecting and Measuring NaV Inhibition Properties. To be noted: HEK cells expressing a truncated form of human NaV 1.8 with full channel activity; electrical stimulation, membrane-potential FRET dyes; 30 minutes compound incubation; read-out: measured IC50 value in the E-VIPR Assay. In kind it is cell-based. The text has this:
E-VIPR Assay Detecting and Measuring NaV Inhibition Properties
Sodium ion channels are voltage-dependent proteins that can be activated by inducing membrane voltage changes by applying electric fields. The electrical stimulation instrument and methods of use, referred to as E-VIPR, are described in International Publication No. WO 2002/008748 A3 and C.-J. Huang et al. Characterization of voltage-gated sodium channel blockers by electrical stimulation and fluorescence detection of membrane potential, 24 Nature Biotech. 439-46 (2006), both of which are incorporated by reference in their entirety. The instrument comprises a microtiter plate handler, an optical system for exciting the coumarin dye while simultaneously recording the coumarin and oxonol emissions, a waveform generator, a current- or voltage-controlled amplifier, and parallel electrode pairs that are inserted into assay plate wells. Under integrated computer control, this instrument passes user-programmed electrical stimulus protocols to cells within the wells of the microtiter plate.
16-20 hours prior to running the assay on E-VIPR, HEK cells expressing a truncated form of human NaV 1.8 with full channel activity were seeded into microtiter 384-well plates, pre-coated with matrigel, at a density of 25,000 cells per well. 2.5-5% KIR2.1 BacMam virus was added to the final cell suspension before seeding into cell plates. HEK cells were grown in Dulbecco's Modified Eagle's Medium (DMEM) supplemented with 10% FBS (Fetal Bovine Serum, qualified; Sigma #F4135), 1% NEAA (Non-Essential Amino Acids, Gibco #11140), 1% HEPES (Gibco #15630), 1% Pen-Strep (Penicillin-Streptomycin; Gibco #15140) and 5 μg/ml Blasticidin (Gibco #R210-01). Cells were expanded in 5-layer CellSTACK culture chambers or cell culture flasks with vented caps, with 90-95% humidity and 5% CO2.
Reagents and Stock Solutions:
100 mg/mL Pluronic F-127 (Sigma #P2443), in dry DMSO
Compound Plates: Corning 384-well Polypropylene Round Bottom #3656
Cell Plates: 384-well tissue culture treated plates (Greiner #781091-2B)
2.5-5% KIR 2.1 Bacmam virus (produced in-house), prepared as described in Section 3.3 of J. A. Fornwald et al., Gene Expression in Mammalian Cells Using BacMam, a Modified Baculovirus System, 1350 Methods in Molecular Biology 95-116 (2016), the entire contents of which are incorporated by reference. The concentration used can be dependent on viral titer of each batch.
5 mM DiSBAC6(3), a voltage sensitive oxonol acceptor (CAS number 169211-44-3; 5-[3-(1,3-dihexylhexahydro-4,6-dioxo-2-thioxo-5-pyrimidinyl)-2-propen-1-ylidene]-1,3-dihexyldihydro-2-thioxo-4,6(1H,5H)-pyrimidinedione), in dry DMSO. The preparation of DiSBAC6(3) is analogous to that of DiSBAC4(3) as described in Voltage Sensing by Fluorescence Resonance Energy Transfer in Single Cells, Gonzalez, J. E. and Tsien, R. Y. (1995) Biophys. J. 69, 1272-1280.
5 mM CC2-DMPE, a commercially available membrane-bound coumarin phospholipid FRET donor (ThermoFisher Scientific catalog number K1017, CAS number 393782-57-5; tetradecanoic acid, 1,1′-[(1R)-1-[8-(6-chloro-7-hydroxy-2-oxo-2H-1-benzopyran-3-yl)-3-hydroxy-3-oxido-8-oxo-2,4-dioxa-7-aza-3-phosphaoct-1-yl]-1,2-ethanediyl]ester) was prepared in dry DMSO. See also, Improved indicators of cell membrane potential that use fluorescence resonance energy transfer, Gonzalez, J. E. and Tsien, R. Y. (1997) Chem. Biol. 4, 269-277.
Voltage Assay Background Suppression Compound (VABSC-1) is prepared in H2O (89-363 mM, range used to maintain solubility)
Human Serum (HS, Millipore #S1P1-01KL, or Sigma SLBR5469V and SLBR5470V as a 50%/50% mixture, for 25% assay final concentration)
Sodium Chloride 160 mM (9.35 g/L), Potassium Chloride, 4.5 mM (0.335 g/L), Glucose 10 mM (1.8 g/L), Magnesium Chloride (Anhydrous) 1 mM (0.095 g/L), Calcium Chloride 2 mM (0.222 g/L), HEPES 10 mM (2.38 g/L) in water. […]
Usually pIC50 stands for −log10 of the IC50, conventionally taken in molar units. As to `CCOC(=O)c1c(-c2cc(C(F)(F)F)ncc2N2CCCC(F)(F)CC2)[nH]c(C)c(C)c1=O` [Compound 34, ethyl 2-[5-(4,4-difluoroazepan-1-yl)-2-(trifluoromethyl)-4-pyridyl]-5,6-dimethyl-4-oxo-1H-pyridine-3-carboxylate], the pIC50 is 5.30 to 5.70.
For `CCOC(=O)c1c(C)[nH]c(-c2c(Oc3ccc(F)c(F)c3C)ncc(C(F)(F)F)c2C)c(C)c1=O` [Compound 43, ethyl 6-[2-(3,4-difluoro-2-methyl-phenoxy)-4-methyl-5-(trifluoromethyl)-3-pyridyl]-2,5-dimethyl-4-oxo-1H-pyridine-3-carboxylate], the pIC50 was 5.70 to 6.30.
As to `COc1c(Oc2cc(C(F)(F)F)c(F)cc2-c2cc(=O)nc(C)[nH]2)ccc(F)c1F` [Compound 55, 6-[2-(3,4-difluoro-2-methoxy-phenoxy)-5-fluoro-4-(trifluoromethyl)phenyl]-2-methyl-1H-pyrimidin-4-one], the pIC50 is no more than 5.30.
Under `Cc1cc(=O)cc(-c2cc3ccccc3nc2OCc2ccccc2)[nH]1` [Compound 105, 2-(2-benzyloxy-3-quinolyl)-6-methyl-1H-pyridin-4-one] stands no more than 5.30; under `Cc1cc(=O)cc(-c2cnc(C(F)(F)F)nc2C2CCC(F)(F)CC2)[nH]1` [Compound 109, 2-[4-(4,4-difluorocyclohexyl)-2-(trifluoromethyl)pyrimidin-5-yl]-6-methyl-1H-pyridin-4-one], 5.30 to 5.70; under `Cc1c(Oc2nc3ccccc3cc2-c2cc(=O)cc[nH]2)ccc(F)c1F` [Compound 115, 2-[2-(3,4-difluoro-2-methyl-phenoxy)-3-quinolyl]-1H-pyridin-4-one], 5.70 to 6.30.
`Cc1[nH]c(-c2ccc(C(C)(C)C)cc2OCC2CC2(F)F)cc(=O)c1C` (centres unmarked) [Compound 135, 6-[4-tert-butyl-2-[(2,2-difluorocyclopropyl)methoxy]phenyl]-2,3-dimethyl-1H-pyridin-4-one]: the pIC50 is 5.70 to 6.30.
Under `Cc1cc(=O)cc(-c2ccc(C(C)(C)C)cc2OCC2CC2(F)F)[nH]1` (centres unmarked) [Compound 136] stands 5.30 to 5.70; under `Cc1[nH]c(-c2cc(C(F)(F)F)ncc2C2CCC(C(F)(F)F)CC2)cc(=O)c1C` (centres unmarked) [Compound 142, 2,3-dimethyl-6-[2-(trifluoromethyl)-5-[4-(trifluoromethyl)cyclohexyl]-4-pyridyl]-1H-pyridin-4-one], 5.70 to 6.30.
Take `Cc1cc(=O)cc(-c2ccccc2OCC2CC2)[nH]1` [Compound 146, 2-[2-(cyclopropylmethoxy)phenyl]-6-methyl-1H-pyridin-4-one]: the pIC50 was no more than 5.30.
Regarding `Cc1cc(=O)cc(-c2ccccc2C2CC2)[nH]1` [Compound 148, 2-(2-cyclopropylphenyl)-6-methyl-1H-pyridin-4-one], the pIC50 is no more than 5.30.
As for `Cc1cc(=O)cc(-c2cc(C(F)(F)F)cnc2N2CCCC(F)(F)CC2)[nH]1` [Compound 156, 2-[2-(4,4-difluoroazepan-1-yl)-5-(trifluoromethyl)-3-pyridyl]-6-methyl-1H-pyridin-4-one], the pIC50 is 5.70 to 6.30.
Regarding `Cc1cc(=O)cc(-c2cc(C(F)(F)F)cnc2N2CCC(F)(F)CC2)[nH]1` [Compound 157, 2-[2-(4,4-difluoro-1-piperidyl)-5-(trifluoromethyl)-3-pyridyl]-6-methyl-1H-pyridin-4-one], the pIC50 is no more than 5.30.
As for `Cc1cc(C(C)(C)C)cc(Oc2ccc(F)cc2O)c1-c1cc(=O)cc[nH]1` [Compound 160, 2-[4-tert-butyl-2-(4-fluoro-2-hydroxy-phenoxy)-6-methyl-phenyl]-1H-pyridin-4-one], the pIC50 is no more than 5.30.
With `Cc1[nH]c(-c2c(Oc3ccc(F)c(F)c3C)ncc(C(F)(F)F)c2C)cc(=O)c1-c1cn(C)c(C)n1` [Compound 162, 6-[2-(3,4-difluoro-2-methyl-phenoxy)-4-methyl-5-(trifluoromethyl)-3-pyridyl]-3-(1,2-dimethylimidazol-4-yl)-2-methyl-1H-pyridin-4-one], the pIC50 is 5.70 to 6.30.
`CCOC(=O)c1c(-c2cc3ccccc3nc2N2CCC[C@@H](OC)C2)[nH]c(C)c(OC)c1=O` [Compound 224, ethyl 5-methoxy-2-[2-[(3R)-3-methoxy-1-piperidyl]-3-quinolyl]-6-methyl-4-oxo-1H-pyridine-3-carboxylate]: the pIC50 is 5.30 to 5.70.
`CCOC(=O)c1c(-c2cc3ccccc3nc2N2CCCC(F)(F)C2)[nH]c(C)c(OC)c1=O` [Compound 226, ethyl 2-[2-(3,3-difluoro-1-piperidyl)-3-quinolyl]-5-methoxy-6-methyl-4-oxo-1H-pyridine-3-carboxylate]: the pIC50 is 5.30 to 5.70.
Take `CCOC(=O)c1c(-c2cc3ccccc3nc2N2CCCOCC2)[nH]c(C)c(OC)c1=O` [Compound 227, ethyl 5-methoxy-6-methyl-2-[2-(1,4-oxazepan-4-yl)-3-quinolyl]-4-oxo-1H-pyridine-3-carboxylate]: the pIC50 was 5.30 to 5.70.
Then `CCOC(=O)c1c(-c2cc3ccccc3nc2N2C[C@@H]3CCO[C@@H]3C2)[nH]c(C)c(OC)c1=O` [Compound 228, ethyl 2-[2-[(3aS,6aS)-2,3,3a,4,6,6a-hexahydrofuro[2,3-c]pyrrol-5-yl]-3-quinolyl]-5-methoxy-6-methyl-4-oxo-1H-pyridine-3-carboxylate], with no more than 5.30; and `CCOC(=O)c1c(-c2cc3ccccc3nc2N2CCC(OC)CC2)[nH]c(C)c(OC)c1=O` [Compound 229, ethyl 5-methoxy-2-[2-(4-methoxy-1-piperidyl)-3-quinolyl]-6-methyl-4-oxo-1H-pyridine-3-carboxylate], with 5.30 to 5.70.
Then `CCOC(=O)c1c(-c2cc3ccccc3nc2N2CCC[C@H](OC)C2)[nH]c(C)c(OC)c1=O` [Compound 231, ethyl 5-methoxy-2-[2-[(3S)-3-methoxy-1-piperidyl]-3-quinolyl]-6-methyl-4-oxo-1H-pyridine-3-carboxylate], with 5.30 to 5.70; and `CCOC(=O)c1c(-c2cc3ccccc3nc2N2CCC(C)(C)C2)[nH]c(C)c(OC)c1=O` [Compound 238, ethyl 2-[2-(3,3-dimethylpyrrolidin-1-yl)-3-quinolyl]-5-methoxy-6-methyl-4-oxo-1H-pyridine-3-carboxylate], with 5.70 to 6.30; and `CCOC(=O)c1c(-c2cc3ccccc3nc2N2CCC(F)(F)C2)[nH]c(C)c(OC)c1=O` [Compound 242, ethyl 2-[2-(3,3-difluoropyrrolidin-1-yl)-3-quinolyl]-5-methoxy-6-methyl-4-oxo-1H-pyridine-3-carboxylate], with 5.30 to 5.70.
On to `CCOC(=O)c1c(-c2cc3ccccc3nc2N2CC[C@H](OC)C2)[nH]c(C)c(OC)c1=O` [Compound 244, ethyl 5-methoxy-2-[2-[(3S)-3-methoxypyrrolidin-1-yl]-3-quinolyl]-6-methyl-4-oxo-1H-pyridine-3-carboxylate], for which the pIC50 was 5.30 to 5.70.
Turning to `CCOC(=O)c1c(-c2cc3ccccc3nc2N2CCOCC2)[nH]c(C)c(OC)c1=O` [Compound 249, ethyl 5-methoxy-6-methyl-2-(2-morpholino-3-quinolyl)-4-oxo-1H-pyridine-3-carboxylate], the pIC50 was no more than 5.30.
As for `CCOC(=O)c1c(-c2cc3ccccc3nc2N2CCCCC2)[nH]c(C)c(OC)c1=O` [Compound 250, ethyl 5-methoxy-6-methyl-4-oxo-2-[2-(1-piperidyl)-3-quinolyl]-1H-pyridine-3-carboxylate], the pIC50 was 5.70 to 6.30.
